Measurements reported in patent US7504537B2, “Hydroxamic acid derivative and MMP inhibitor containing the same as active ingredient” (Dainippon Sumitomo Pharma Co., Ltd., priority 2001, dated 2009).

Assays:
Format in all cases: biochemical
MMP-3 = biological target: T1, MMP-3 (Homo sapiens, UniProt P08254); assay: Test 1 Test on MMP-3 inhibiting activity (fluorogenic peptide substrate); conditions: activated MMP-3, 37° C.; read-out: MMP-3 inhibition activity value
T1 construct: C-terminal truncated cDNA in which the cDNA encodes human prostromelysin; made in house; host or cells: E. coli
Protocol: Test 1 Test on MMP-3 Inhibiting Activity
C-terminal truncated cDNA in which the cDNA encodes human prostromelysin, was subcloned (proMMP-3, cDNA sequence in Nature, 348, 699-704 (1990)), was expressed in E. coli and then, the expressed protein was purified in accordance with the method described in Biochemistry 30, 6476-6483 (1991). proMMP-3 activation was carried out by treating with 1 mM 4-aminophenyl mercuric acetate for 60 minutes at 37° C.
Enzyme activity test was conducted by the method of C. G. Knight (FEBS Lett., 296(3), 263-266 (1992)).
A mixture of activated MMP-3 (20 nM, 10 μl), buffer solution (70 μl, pH 7.5 solution containing 100 mM Tris-HCl solution, 10 mM calcium chloride solution, 100 mM sodium chloride solution and 0.05% Brij-35 solution), MOCAc-Pro-Leu-Gly-Leu-A2pr(DNP)-Ala-Arg-NH2 in 0.1% DMSO solution (100 μM, 10 μl) and a test compound in DMSO solution was incubated for 1.5 hours at 37° C. The mixture was put on a 96 well-plate (100 μl/well) and the plate was cultured at 37° C. The enzyme activity in the presence of the compound was measured based on fluorescence intensity (λex 320 nm, λem 405 nm), and IC50 was calculated.

MMP-2 = biological target: T2, MMP-2 (Homo sapiens, UniProt P08253); assay: Test 3 MMP-2 inhibition activity test (gelatinase activity assay kit); conditions: activated human MMP-2, biotin labeled gelatin
T2 construct: purchased Boeringer Manheim (Roche Diagnostics)
T2 sequence (P08253 110-660): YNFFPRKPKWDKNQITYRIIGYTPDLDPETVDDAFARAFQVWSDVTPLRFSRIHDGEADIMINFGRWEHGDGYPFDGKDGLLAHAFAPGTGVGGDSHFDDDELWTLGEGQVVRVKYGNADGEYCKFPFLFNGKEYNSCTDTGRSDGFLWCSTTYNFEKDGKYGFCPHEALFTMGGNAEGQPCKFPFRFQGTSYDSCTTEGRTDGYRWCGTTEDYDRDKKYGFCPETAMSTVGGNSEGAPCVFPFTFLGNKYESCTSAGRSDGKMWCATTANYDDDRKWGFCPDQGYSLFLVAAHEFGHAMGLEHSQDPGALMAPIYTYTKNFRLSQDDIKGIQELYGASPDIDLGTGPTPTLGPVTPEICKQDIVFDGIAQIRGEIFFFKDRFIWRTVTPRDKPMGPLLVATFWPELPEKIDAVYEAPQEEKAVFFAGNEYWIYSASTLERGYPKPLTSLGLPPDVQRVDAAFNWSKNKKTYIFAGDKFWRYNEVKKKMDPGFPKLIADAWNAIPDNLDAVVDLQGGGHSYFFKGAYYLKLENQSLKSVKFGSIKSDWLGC
Protocol: TTC buffer solution was attached to a MMP-2 enzyme assay kit, and the solution was made of 50 mM tris, 1 mM calcium chloride solution and 0.05% Triton X-100 solution, and was adjusted to pH 7.5.
Test 3 MMP-2 Inhibition Activity Test
MMP-2 enzyme assay kit (Gelatinase Activity Assay, Roche.Diagonistics) was used.
A mixture of 1.2U human MMP-2 (20 μl, Boeringer Manheim 30U freezed dry product), TTC buffer (980 μl) and 2.5 mM 4-aminophenyl mercuric acetate solution (144 μl) was incubated at 37° C. for 30 minutes and then it was preserved under ice cooling until use.
A mixture of DMSO solution (2 μl) containing a definite concentration of the compound, biotin labeled gelatin (188 μl) and activated MMP-2 solution (10 μl) was put on a 96 well-assay plate (protein nonabsorbance type), well agitated and incubated at 37° C. for 1 hour. This solution was transferred to a Streptavidin-coating plate and agitated at 15° C, to 30° C. for 30 minutes. And then the solution was washed with TTC buffer solution (200 μl) three times. Thereto was added Streptavidin-POD (200 μl) and the mixture was agitated at 15° C. to 25° C. for 60 minutes, followed by washing with TTC buffer (200 μl) three times. Then, ABTS solution (200 μl) was added thereto and after standing at room temperature for 40 minutes, furuorescence intensity was measure at 405 nm and IC50 was calculated.
In case of the above test, a control and a blank were prepared when the well was prepared as mentioned below. DMSO (2 μl) was used as a control instead of a sample solution. In the case of a blank, DMSO (2 μl) instead of the sample solution and the solution (10 μl) prepared in the same manner as preparation of activated MMP-2 solution but without adding 1.2U human MMP-2, instead of activated MMP-2 solution (10 μl), were used.

MMP-9 = MMP-9 (Homo sapiens, UniProt P14780); assay: Test 4 MMP-9 inhibiting activity test (biotin labeled gelatin); conditions: activated human MMP-9, biotin labeled gelatin; read-out: MMP-9 inhibition activity value
Protocol: Test 4 MMP-9 Inhibiting Activity Test
A mixture of buffer solution (190 μl; pH 7.5 solution containing 50 mM Tris-HCl solution, 0.5 m sodium chloride solution and 5 mM calcium chloride solution), human MMP-9 (10 μl) and trypsin solution (20 μl; trypsin 3 mg in activated buffer (5 ml)) was incubated at 37° C. for 10 minutes. Thereto was added aprotinine solution (20 μl; aprotinine (3 mg) in buffer (5 ml)) and the mixture was incubated at 37° C. for 10 minutes, followed by addition of buffer (2 ml). The mixture was preserved under cooling with ice until use.
A mixture of DMSO solution (2 μl) containing definite concentration of the compound, biotin labeled gelatin (188 μl) and activated MMP-9 solution (10 μl) was put on a 96 well-assay plate (protein nonabsorbance type), well agitated, and incubated at 37° C. for 1 hour. This solution was transferred to Streptavidin-coating plate, and agitated at 15° C. to 30° C. for 30 minutes. And then the solution was washed with TTC buffer solution (200 μl) three times. Thereto was added Streptavidin-POD (200 μl) and the mixture was agitated at 15° C. to 25° C. for 60 minutes, followed by washing with TTC buffer (200 μl) three times. Then, ABTS solution (200 μl) was added thereto and after standing at room temperature for 40 minutes, furuorescence intensity was measured at 405 nm and IC50 was calculated.
In case of the above test, DMSO (2 μl) was used as a control instead of a sample solution. In the case of a blank, DMSO (2 μl) instead of the sample solution and the solution (10 μl) prepared in the same manner as preparation of […] but without adding 1.2 Uhuman MMP-9, instead of activated MMP-9 solution (10 μl), were used.

MMP-9, sequence (P14780 107-707 limits assumed): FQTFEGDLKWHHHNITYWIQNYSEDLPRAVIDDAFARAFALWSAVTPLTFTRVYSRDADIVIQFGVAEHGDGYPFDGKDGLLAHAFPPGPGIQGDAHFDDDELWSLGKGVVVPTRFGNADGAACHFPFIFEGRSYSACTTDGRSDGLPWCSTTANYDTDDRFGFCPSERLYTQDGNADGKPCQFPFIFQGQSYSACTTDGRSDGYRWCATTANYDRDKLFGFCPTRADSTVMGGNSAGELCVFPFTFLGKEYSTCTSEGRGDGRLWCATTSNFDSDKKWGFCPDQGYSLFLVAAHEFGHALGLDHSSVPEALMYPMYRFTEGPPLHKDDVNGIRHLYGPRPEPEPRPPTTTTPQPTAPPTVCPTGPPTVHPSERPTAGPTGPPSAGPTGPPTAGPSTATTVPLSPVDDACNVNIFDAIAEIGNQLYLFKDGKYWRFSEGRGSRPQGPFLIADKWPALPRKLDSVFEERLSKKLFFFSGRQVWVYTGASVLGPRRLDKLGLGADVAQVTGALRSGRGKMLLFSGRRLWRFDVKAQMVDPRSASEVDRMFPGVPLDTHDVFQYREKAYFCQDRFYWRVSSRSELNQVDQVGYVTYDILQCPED
T1 sequence (P08254 100-272 limits assumed): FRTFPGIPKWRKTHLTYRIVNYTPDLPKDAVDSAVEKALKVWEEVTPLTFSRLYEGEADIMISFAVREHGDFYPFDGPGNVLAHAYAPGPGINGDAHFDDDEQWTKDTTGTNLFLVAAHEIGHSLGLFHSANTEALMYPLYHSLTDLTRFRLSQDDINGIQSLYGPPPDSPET

In the case of `CCOC(=O)CN(C1(C(=O)NO)CCCC1)S(=O)(=O)c1ccc(Oc2ccc(S(C)(=O)=O)cc2)cc1` [Example 23, Ethyl N-{1-[(hydroxyamino)carbonyl]cyclopentyl}-N-({4-[4-(methylsulfonyl)phenoxy]phenyl}sulfonyl)glycinate], the IC50 (MMP-3) is reported as 21.6 nM, the IC50 (MMP-2) is reported as 2100 nM and the IC50 (MMP-9) is reported as 2300 nM.
With `CS(=O)(=O)c1ccc(Oc2ccc(S(=O)(=O)NCC(=O)NO)cc2)cc1` [Example 13, N′^1′-Hydroxy-N′^2′-({4-[4-(methylsulfonyl)phenoxy]phenyl}sulfonyl)glycinamide] the IC50 (MMP-3) was 13.5 nM, the IC50 (MMP-2) was 900 nM and the IC50 (MMP-9) was 4700 nM.
`CS(=O)(=O)c1ccc(Oc2ccc(S(=O)(=O)N(CC(=O)NO)Cc3ccncc3)cc2)cc1` [Example 42, N′^1′-Hydroxy-N′^2′-({4-[4-(methylsulfonyl)phenoxy]phenyl}sulfonyl)-N′^2′-(4-pyridinylmethyl)glycinamide] was tested, and the IC50 (MMP-3) was 67.5 nM, the IC50 (MMP-2) was under 100 nM and the IC50 (MMP-9) was 4300 nM.
For `CS(=O)(=O)c1ccc(Oc2ccc(S(=O)(=O)N(CCC(=O)O)C3(C(=O)NO)CCCC3)cc2)cc1` [Example 27, N-{1-[(Hydroxyamino)carbonyl]cyclopentyl}-N-({4-[4-(methylsulfonyl)phenoxy]phenyl}sulfonyl)-β-alanine], the IC50 (MMP-3) was 89.4 nM, the IC50 (MMP-2) was over 10000 nM and the IC50 (MMP-9) was over 10000 nM.
With `CS(=O)(=O)c1ccc(Oc2ccc(CC3Sc4ccc(C(=O)O)cc4N(CC(=O)NO)C3=O)cc2)cc1` (centres unmarked) [Example 50] the IC50 (MMP-3) was 38 nM, the IC50 (MMP-2) was over 100 nM and the IC50 (MMP-9) was 244 nM.
In the case of `CCOC(=O)CN(CC(=O)NO)S(=O)(=O)c1ccc(Oc2ccc(S(C)(=O)=O)cc2)cc1` [Example 22, Ethyl N-{[(hydroxyamino)carbonyl]methyl}-N-({4-[4-(methylsulfonyl)phenoxy]phenyl}sulfonyl)-glycinate], the IC50 (MMP-3) is reported as 26.6 nM, the IC50 (MMP-2) is reported as 1200 nM and the IC50 (MMP-9) is reported as 1400 nM.
Compound `COCCCN(CC(=O)NO)S(=O)(=O)c1ccc(Oc2ccc(S(C)(=O)=O)cc2)cc1` [Example 43, N^1-Hydroxy-N^2-(3-methoxypropyl)-N^2-({4-[4-(methylsulfonyl)phenoxy]phenyl}sulfonyl)glycinamide] has an IC50 (MMP-3) of 8.5 nM, an IC50 (MMP-2) of 1500 nM and an IC50 (MMP-9) of 600 nM.
In the case of `CCOC(=O)CCN(C1(C(=O)NO)CCOCC1)S(=O)(=O)c1ccc(Oc2ccc(S(C)(=O)=O)cc2)cc1` [Example 31, Ethyl N-{4-[(hydroxyamino)carbonyl]tetrahydro-2H-pyran-4-yl}-N-({4-[4-(methylsulfonyl)phenoxy]phenyl}sulfonyl)-β-alaninate], the IC50 (MMP-3) is reported as 59 nM, the IC50 (MMP-2) is reported as 800 nM and the IC50 (MMP-9) is reported as 4900 nM.
Compound `COc1ccc(Oc2ccc(CC3Sc4ccc(C(=O)O)cc4N(CC(=O)NO)C3=O)cc2)cc1` (centres unmarked) [compound 1, reference compound] has an IC50 (MMP-3) of 88 nM, an IC50 (MMP-2) of over 100 nM and an IC50 (MMP-9) of over 100 nM.
`CCOC(=O)CN(C1(C(=O)NO)CCC1)S(=O)(=O)c1ccc(Oc2ccc(S(C)(=O)=O)cc2)cc1` [Example 46, Ethyl N-{1-[(hydroxyamino)carbonyl]cyclobutyl}-N-({4-[4-(methylsulfonyl)phenoxy]phenyl}sulfonyl)glycinate] gave an IC50 (MMP-3) of 11.6 nM, an IC50 (MMP-2) of over 100 nM and an IC50 (MMP-9) of over 100 nM.
Compound `CS(=O)(=O)c1ccc(Oc2ccc(S(=O)(=O)N(CCC(=O)O)CC(=O)NO)cc2)cc1` [Example 36, N-[2-(Hydroxyamino)-2-oxoethyl]-N-({4-[4-(methylsulfonyl)phenoxy]phenyl}sulfonyl)-β-alanine] has an IC50 (MMP-3) of 37.1 nM, an IC50 (MMP-2) of 2900 nM and an IC50 (MMP-9) of over 100 nM.
Compound `COCCN(CC(=O)NO)S(=O)(=O)c1ccc(Oc2ccc(S(C)(=O)=O)cc2)cc1` [Example 44, N^1-Hydroxy-N^2-(2-methoxyethyl)-N^2-({4-[4-(methylsulfonyl)phenoxy]phenyl}sulfonyl)glycinamide] has an IC50 (MMP-3) of 2.7 nM, an IC50 (MMP-2) of over 100 nM and an IC50 (MMP-9) of over 10000 nM.
For `CS(=O)(=O)c1ccc(Oc2ccc(S(=O)(=O)NC3(C(=O)NO)CCC3)cc2)cc1` [Example 48, N-Hydroxy-1-[({4-[4-(methylsulfonyl)phenoxy]phenyl}sulfonyl)amino]cyclobutanecarboxamide], the IC50 (MMP-3) was 35.9 nM, the IC50 (MMP-2) was over 100 nM and the IC50 (MMP-9) was over 100 nM.
`CCOC(=O)CCN(C1(C(=O)NO)CCCC1)S(=O)(=O)c1ccc(Oc2ccc(S(C)(=O)=O)cc2)cc1` [Example 26, Ethyl N-{1-[(hydroxyamino)carbonyl]cyclopentyl}-N-({4-[4-(methylsulfonyl)phenoxy]phenyl}sulfonyl)-β-alaninate] gave an IC50 (MMP-3) of 14.3 nM, an IC50 (MMP-2) of 300 nM and an IC50 (MMP-9) of over 100 nM.
`CS(=O)(=O)c1ccc(Oc2ccc(S(=O)(=O)N(CC(=O)O)CC(=O)NO)cc2)cc1` [Example 24, N-{[(Hydroxyamino)carbonyl]methyl}-N-({4-[4-(methylsulfonyl)phenoxy]phenyl}sulfonyl)-glycine] gave an IC50 (MMP-3) of 128 nM, an IC50 (MMP-2) of over 10000 nM and an IC50 (MMP-9) of over 10000 nM.
`CC(C)OCCN(CC(=O)NO)S(=O)(=O)c1ccc(Oc2ccc(S(C)(=O)=O)cc2)cc1` [Example 3, N^1-hydroxy-N^2-(2-isopropoxyethyl)-N^2-({4-[4-(methylsulfonyl)phenoxy]phenyl}sulfonyl)glycinamide] was tested, and the IC50 (MMP-3) was 4.8 nM, the IC50 (MMP-2) was over 100 nM and the IC50 (MMP-9) was 1000 nM.
`CC(C)CN(C1(C(=O)NO)CCC1)S(=O)(=O)c1ccc(Oc2ccc(S(C)(=O)=O)cc2)cc1` [Example 18, N-Hydroxy-1-[isobutyl({4-[4-(methylsulfonyl)phenoxy]phenyl}sulfonyl)amino]cyclobutanecarboxamide] was tested, and the IC50 (MMP-3) was 29.9 nM and the IC50 (MMP-9) was 500 nM.
